From patent US5629304A, “Therapeutic agent for thrombocytopenia and indolocarbazole derivatives” (Kyowa Hakko Kogyo Co., Ltd., priority 1994, dated 1997)

What follows are compounds tested on platelets (assay: Platelet Production-Stimulating Activity in Mice). Conditions: 20 mg/kg i.p. once a day, day 1 to 5; blood on day 15; vs solvent control.
Assay type: in vivo, BALB/c mice
From the text: Platelet Production-Stimulating Activity in Mice
A test compound was intraperitoneally administered to four 7-week-old male BALB/c mice per group once a day for consecutive 5 days (day 1 to day 5). A control group (4 mice per group) received only the solvent (5% Tween 80/water). The blood was collected from the fundus oculi vein of each animal on the 15th day from the start of administration (day 15), and the number of the platelets was counted with a microcell counter (Model CC-180A, manufactured by Toa Iryo Denshi Co.). The rate of increase of the number of platelets in the test group (average) over the control (average) was calculated according to the following formula to evaluate the effect of the test compound.
A: the number of platelets in test group
B: the number of platelets in control group

Row | Compound | Rate of increase (number of platelets, A/B×100) [%]
1 | CN(C)CCCn1c2ccccc2c2c3c(c4c5ccccc5n(C)c4c21)C(=O)N(C)C3=O [Compound 25] | 151

Same assay, conditions: 25 mg/kg i.p. once a day, day 1 to 5; blood on day 15; vs solvent control

Row | Compound | Rate of increase (number of platelets, A/B×100) [%]
2 | CCN(CC)CCCn1c2ccc(O)cc2c2c3c(c4c5cc(O)ccc5n(C)c4c21)C(=O)N(C)C3=O [Compound 108] | 179

Same assay, conditions: 40 mg/kg i.p. once a day, day 1 to 5; blood on day 15; vs solvent control

Row | Compound | Rate of increase (number of platelets, A/B×100) [%]
3 | CCN(CC)CCCn1c2ccccc2c2c3c(c4c5ccccc5n(C)c4c21)C(=O)N(C)C3=O [Compound 27] | 187
4 | CCCN(C)CCCn1c2ccccc2c2c3c(c4c5ccccc5n(C)c4c21)C(=O)N(C)C3=O [Compound 31] | 161
5 | CCN(CC)CCCn1c2ccc(Br)cc2c2c3c(c4c5cc(Br)ccc5n(C)c4c21)C(=O)N(C)C3=O [Compound 110] | 184

What follows are compounds tested on megakaryocyte colony formation (bone marrow cells) (assay: Megakaryocyte colony formation-stimulating activity). Conditions: 1 nM; control (IL-3 alone) defined as 100; IL-3 100 U/ml; 7 days.
Assay type: cell-based, BALB/c mouse
Description: Megakaryocyte colony formation-stimulating activity
An eight-weeks-old BALB/c mouse was killed. Its femurs and cervical vertebrae were taken out, and both end sections thereof were cut off. Bone marrow cells were collected from the pieces cut off from the femurs and cervical vertebrae using a syringe containing IMDM (430-2200EA prepared by Gibco Co.), and then blown into a test tube. The test tube was allowed to stand for 5 minutes, and the supernatant was collected with a pipet. To a reaction mixture comprising the bone marrow cells (50,000 cells), bovine serum albumin (2%: A4508 made by Sigma Co.), transferrin (600 μg/ml: 652202 made by Boehringer Mannheim Co.), IL-3 (100 U/ml), cholesterol (16 μg/ml: 036-0641 made by Wako Co.) and agar (0.6%: 0142-02 made by Difco Laboratories) were separately added the test compounds at various concentrations, and 1 ml each of the mixtures was put into a 35-mm dish (Lux Co.), followed by incubation under the conditions of 37° C., 5% CO2 and a humidity of 95% or more for 7 days. Separately, IL-3 alone was added to the bone marrow cells to prepare a control. After the incubation was completed, the agar was dried over a filter paper (1001-055 made by Whatman Co.) and then fixed with 2.5% glutaraldehyde, followed by acetylcholinesterase staining (ACHE staining).
The ACHE staining was carried out by the method described below.
ACHE staining: To each sample was added a solution comprising 0.67 mg/ml acetylthiocholine iodide, 2.94 mg/ml sodium citrate, 7.5 mg/ml copper (II) sulfate and 1.65 mg/ml potassium ferricyanide, and the mixture was allowed to stand at room temperature in the dark for 4-6 hours.
A group of 4 or more megakaryocytes which were stained reddish brown was regarded as a colony, and the number of colonies per dish was calculated using a microscope. The results are shown in Table 2 as relative values to the control.

Row | Compound | Rel. Value (megakaryocyte colonies per dish relative to the control)
6 | CN1Cc2c(c3c4ccccc4n(C)c3c3c2c2ccccc2n3C)C1=O [Compound 9] | 128
7 | CN1Cc2c(c3c4ccccc4n(Cc4ccc(N(C)C)cc4)c3c3c2c2ccccc2n3Cc2ccc(N(C)C)cc2)C1=O [Compound 20] | 140
8 | CNCCCn1c2ccccc2c2c3c(c4c5ccccc5n(C)c4c21)C(=O)N(C)C3=O [Compound 26] | 117
9 | CN1Cc2c(c3c4ccccc4[nH]c3c3[nH]c4ccccc4c23)C1=O [Compound 80] | 111
10 | C=CCn1c2ccccc2c2c3c(c4c5ccccc5n(CC=C)c4c21)C(=O)N(C)C3=O [Compound 82] | 101
11 | CN1C(=O)c2c(c3c4ccccc4n(CC(O)CO)c3c3[nH]c4ccccc4c23)C1=O (stereo not drawn) [Compound 83] | 111
12 | CCOC(=O)Cn1c2ccccc2c2c3c(c4c5ccccc5n(CC(=O)OCC)c4c21)C(=O)NC3 [Compound 85] | 125
13 | O=C1NCc2c1c1c3ccccc3n(CCCO)c1c1c2c2ccccc2n1CCCO [Compound 86] | 131
14 | O=C1NCc2c1c1c3ccccc3[nH]c1c1c2c2ccccc2n1CCCN1CCOCC1 [Compound 88] | 120
15 | O=C1c2c(c3c4ccccc4[nH]c3c3[nH]c4ccccc4c23)CN1C1CCCCO1 (stereo not drawn) [Compound 89] | 110
16 | Cn1c2ccccc2c2c3c(c4c5ccccc5n(C)c4c21)C(=O)NC3 [Compound 91] | 111
17 | CN1C(=O)C(c2c[nH]c3ccccc23)=C(c2c[nH]c3ccccc23)C1=O [Compound 93] | 109
18 | CCN(CC)CCCn1c2ccc(Br)cc2c2c3c(c4c5cc(Br)ccc5n(C)c4c21)C(=O)N(C)C3=O [Compound 110] | 137

Same assay, conditions: 10 nM; control (IL-3 alone) defined as 100; IL-3 100 U/ml; 7 days

Row | Compound | Rel. Value (megakaryocyte colonies per dish relative to the control)
19 | C=CCn1c2ccccc2c2c3c(c4c5ccccc5[nH]c4c21)C(=O)N(C)C3=O [Compound 81] | 113
20 | CN1C(=O)c2c(c3c4ccccc4n(CC(O)CO)c3c3c2c2ccccc2n3CC(O)CO)C1=O (stereo not drawn) [Compound 84] | 132
21 | O=C1NCc2c1c1c3ccccc3n(Cc3ccccc3)c1c1c2c2ccccc2n1Cc1ccccc1 [Compound 90] | 106
